Reference: patent US10053416B1, “Process for producing long chain amino acids and dibasic acids” (VITAWORKS IP, LLC, priority 2017, dated 2018)
Structures can show the parent of a compound that is named as a salt.

How the values were obtained:
[1] = Solubility curve in 5% aqueous solution of ammonium hydroxide (FIG. 4); format: physicochemical; details: as a function of temperature (FIG. 4)
Source text: FIG. 4. Solubility curve of 11-aminoundecanoic acid and dodecanedioic acid in 5% aqueous solution of ammonium hydroxide.
In one embodiment of the present invention, schematically illustrated in FIG. 1, the solution or suspension is further cooled to crystallize the long chain amino acid, which can be recovered by means of solid-liquid separation to provide a mother liquor containing the ammonium or alkylamine salts of long chain dibasic acid and alkanoic acid. […] The three components in the mother liquor, i.e., alkylamine, dodecanedioic acid, and alkanoic acid, can be separated according to one of the following three methods.

[2] = Solubility / phase separation observation in water and aqueous salt solutions; format: physicochemical
Method: If there are long chain fatty acids present in the starting material, these fatty acids are precipitated as the ammonium salt, along with the long chain amino acid. In the production of 11-aminoundecanoic acid and dodecanedioic acid from the starting material of castor oil, significant amount of stearic acid is present in the mixed amide derivatives. […] If ammonia or ammonium hydroxide is used as the basic agent to neutralize sulfuric acid, and after more basic agent is added to the mother liquor to a basic pH, alkylamine can only be recovered by extraction. Distillation of the basic solution will remove ammonia instead of alkylamine. […] No phase separation is observed between hexylamine and a solution of ammonium sulfate.

Solubility ([2]; in a solution of alkali salt) | Solubility ([2]; in a solution of ammonium salt, i.e., ammonium sulfate) | Solubility ([2]; in water) | SMILES | Solubility [1]
– | – | – | NCCCCCCCCCCC(=O)O [11-aminoundecanoic acid] | nearly insoluble
– | – | – | O=C(O)CCCCCCCCCCC(=O)O [ammonium salt of dodecanedioic acid, dodecanedioic acid] | soluble and becomes more soluble as temperature increases
insoluble | freely soluble | insoluble | CCCCCCN [hexylamine] | –
